Results as given in US10093630B2, “Pyrazole compounds and methods of making and using same” (ABIDE THERAPEUTICS, INC., priority 2014, dated 2018).

Columns and labels:
Assay in all cases: In vitro competitive activity-based protein profiling (gel-based, FP-Rh or HT-01 probe)
Format in all cases: biochemical
ABHD6 = target: T1, ABHD6 (Mus musculus, UniProt Q8R2Y0); conditions: for inhibition at 1 µM: 1 μM inhibitor, read-out: % Inhibition at 1 μM, C = ABHD6; for inhibition at 10 µM: 10 μM inhibitor, read-out: % Inhibition at 10 μM, C = ABHD6; for IC50: mouse brain membrane fraction or cell lysates, 30 min preincubation at 37° C., read-out: Mouse (IC50 value, nM) ABHD6
T1 construct: Proteomes (mouse brain membrane fraction or cell lysates); from tissue; host or cells: mouse brain membrane fraction (or cell lysates, not specified)
T1 sequence (Q8R2Y0 1-336): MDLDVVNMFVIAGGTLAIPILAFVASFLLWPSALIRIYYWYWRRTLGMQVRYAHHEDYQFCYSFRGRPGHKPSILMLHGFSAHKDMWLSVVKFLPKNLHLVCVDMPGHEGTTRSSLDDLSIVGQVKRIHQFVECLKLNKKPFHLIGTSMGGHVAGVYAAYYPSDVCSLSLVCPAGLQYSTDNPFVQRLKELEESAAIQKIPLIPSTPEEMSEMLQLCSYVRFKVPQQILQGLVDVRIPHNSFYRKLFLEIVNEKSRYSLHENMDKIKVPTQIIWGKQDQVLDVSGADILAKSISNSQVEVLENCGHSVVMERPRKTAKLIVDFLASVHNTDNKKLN
Summary of the method: (§1)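 Read-out: fluorescent band intensity on SDS-PAGE gels, reporting remaining serine hydrolase activity. Before that, proteome (mouse brain membranes or cell lysates, 1.0 mg/mL) saw a range of inhibitor concentrations for 30 min at 37° C, followed by 30 min probe labelling (FP-Rh or HT-01).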

FAAH = target: T2, FAAH (Mus musculus, UniProt O08914); conditions: for inhibition at 1 µM: 1 μM inhibitor, read-out: % Inhibition at 1 μM, B = FAAH; for inhibition at 10 µM: 10 μM inhibitor, read-out: % Inhibition at 10 μM, B = FAAH; for IC50: mouse brain membrane fraction or cell lysates, 30 min preincubation at 37° C., read-out: Mouse (IC50 value, nM) FAAH
T2 construct: Proteomes (mouse brain membrane fraction or cell lysates); from tissue; host or cells: mouse brain membrane fraction (or cell lysates, not specified)
T2 sequence (O08914 1-579): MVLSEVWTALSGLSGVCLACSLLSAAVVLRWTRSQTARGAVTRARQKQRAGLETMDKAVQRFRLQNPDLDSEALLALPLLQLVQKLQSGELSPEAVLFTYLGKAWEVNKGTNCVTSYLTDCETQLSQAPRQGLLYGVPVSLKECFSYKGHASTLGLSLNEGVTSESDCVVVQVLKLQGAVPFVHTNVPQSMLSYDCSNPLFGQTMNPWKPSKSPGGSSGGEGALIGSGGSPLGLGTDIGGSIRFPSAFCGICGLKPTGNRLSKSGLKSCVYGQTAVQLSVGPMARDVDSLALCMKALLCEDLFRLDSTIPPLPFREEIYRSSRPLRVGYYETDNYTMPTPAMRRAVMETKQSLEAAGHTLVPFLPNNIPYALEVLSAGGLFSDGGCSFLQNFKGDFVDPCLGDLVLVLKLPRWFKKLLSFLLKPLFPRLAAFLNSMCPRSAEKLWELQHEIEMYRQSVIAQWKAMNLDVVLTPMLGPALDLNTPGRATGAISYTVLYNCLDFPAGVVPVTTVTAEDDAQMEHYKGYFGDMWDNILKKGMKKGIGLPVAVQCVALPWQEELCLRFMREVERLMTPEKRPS
Summary of the method: as §1

MAGL = target: T3, MAGL (Mus musculus, UniProt O35678); conditions: for inhibition at 1 µM: 1 μM inhibitor; for inhibition at 10 µM: 10 μM inhibitor; for IC50: mouse brain membrane fraction or cell lysates, 30 min preincubation at 37° C., read-out: Mouse (IC50 value, nM) MAGL
T3 construct: Proteomes (mouse brain membrane fraction or cell lysates); from tissue; host or cells: mouse brain membrane fraction (or cell lysates, not specified)
T3 sequence (O35678 1-303): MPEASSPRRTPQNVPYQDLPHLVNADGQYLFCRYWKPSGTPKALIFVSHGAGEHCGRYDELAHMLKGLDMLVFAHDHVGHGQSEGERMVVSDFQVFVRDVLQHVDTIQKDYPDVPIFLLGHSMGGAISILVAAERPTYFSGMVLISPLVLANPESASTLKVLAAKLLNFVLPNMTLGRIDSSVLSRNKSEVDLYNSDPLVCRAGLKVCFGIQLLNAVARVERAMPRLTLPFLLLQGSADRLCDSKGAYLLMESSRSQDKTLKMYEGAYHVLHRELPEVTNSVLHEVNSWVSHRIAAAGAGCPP
Summary of the method: as §1

PLA2G7 = target: T4, PLA2G7 (Mus musculus, UniProt Q60963); conditions: for inhibition at 1 µM: 1 μM inhibitor, read-out: % Inhibition at 1 μM, D = PLA2G7; for inhibition at 10 µM: 10 μM inhibitor, read-out: % Inhibition at 10 μM, D = PLA2G7
T4 construct: Proteomes (mouse brain membrane fraction or cell lysates); from tissue; host or cells: mouse brain membrane fraction (or cell lysates, not specified)
T4 sequence (Q60963 22-440): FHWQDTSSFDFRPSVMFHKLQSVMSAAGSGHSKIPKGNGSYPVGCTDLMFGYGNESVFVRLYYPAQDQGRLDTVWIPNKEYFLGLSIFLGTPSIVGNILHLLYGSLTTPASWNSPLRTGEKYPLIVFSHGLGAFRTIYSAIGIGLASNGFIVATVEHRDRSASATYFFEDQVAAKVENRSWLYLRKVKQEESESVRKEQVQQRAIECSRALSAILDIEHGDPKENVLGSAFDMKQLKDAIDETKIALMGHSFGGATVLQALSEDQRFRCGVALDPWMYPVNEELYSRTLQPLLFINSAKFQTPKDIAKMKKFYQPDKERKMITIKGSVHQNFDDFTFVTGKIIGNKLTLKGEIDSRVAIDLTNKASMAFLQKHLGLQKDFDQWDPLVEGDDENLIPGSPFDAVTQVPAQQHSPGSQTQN
Summary of the method: as §1

| SMILES | inhibition at 1 µM (ABHD6) | inhibition at 10 µM (ABHD6) | inhibition at 1 µM (FAAH) | inhibition at 10 µM (FAAH) | inhibition at 1 µM (MAGL) | inhibition at 10 µM (MAGL) | inhibition at 1 µM (PLA2G7) | inhibition at 10 µM (PLA2G7) | IC50 (ABHD6) | IC50 (FAAH) | IC50 (MAGL) |
| --- | --- | --- | --- | --- | --- | --- | --- | --- | --- | --- | --- |
| O=C(c1cnn(C(=O)N2CCN(Cc3ccncn3)CC2)c1)N1CCCCC1 [Example 73, Piperidin-1-yl(1-(4-(pyrimidin-4-ylmethyl)piperazine-1-carbonyl)-1H-pyrazol-4-yl)methanone] | < 25% | > 75% | < 25% | 25 to 75% | < 25% | < 25% | > 75% | > 75% |  |  |  |
| O=C(c1cnn(C(=O)N2CCN(Cc3nccs3)CC2)c1)N1CCCCC1 [Example 74, Piperidin-1-yl(1-(4-(thiazol-2-ylmethyl)piperazine-1-carbonyl)-1H-pyrazol-4-yl)methanone] | > 75% | > 75% | < 25% | > 75% | < 25% | < 25% | > 75% | > 75% |  |  |  |
| O=C(c1cnn(C(=O)N2CCN(Cc3cncnc3)CC2)c1)N1CCCCC1 [Example 75, Piperidin-1-yl(1-(4-(pyrimidin-5-ylmethyl)piperazine-1-carbonyl)-1H-pyrazol-4-yl)methanone] | < 25% | > 75% | < 25% | < 25% | < 25% | < 25% | > 75% | > 75% |  |  |  |
| Cc1cc(-c2ccccc2)ccc1CN1CCN(C(=O)n2cc(C(=O)N3CCCCC3)cn2)CC1 [Example 76, (4-((3-Methyl-[1,1′-biphenyl]-4-yl)methyl)piperazin-1-yl)(4-(piperidine-1-carbonyl)-1H-pyrazol-1-yl)methanone] | > 75% | > 75% | > 75% | > 75% | > 75% | > 75% | > 75% | > 75% | 100 to 1000 nM | < 100 nM | 100 to 1000 nM |
| O=C(c1cnn(C(=O)N2CCN(Cc3ccccn3)CC2)c1)N1CCOCC1 [Example 77, (4-(Morpholine-4-carbonyl)-1H-pyrazol-1-yl)(4-(pyridin-2-ylmethyl)piperazin-1-yl)methanone] | < 25% | > 75% |  | < 25% |  | < 25% | < 25% | > 75% |  |  |  |
| O=C(c1cnn(C(=O)N2CCN(Cc3ccc4c(c3)OCO4)CC2)c1)N1CCCC1 [Example 78, (4-(Benzo[d][1,3]dioxol-5-ylmethyl)piperazin-1-yl)(4-(pyrrolidine-1-carbonyl)-1H-pyrazol-1-yl)methanone] | > 75% | > 75% | > 75% | > 75% | < 25% | > 75% | < 25% | > 75% |  |  |  |

The next lines start with the values.

| inhibition at 1 µM (ABHD6) | inhibition at 10 µM (ABHD6) | inhibition at 1 µM (FAAH) | inhibition at 10 µM (FAAH) | inhibition at 1 µM (MAGL) | inhibition at 10 µM (MAGL) | inhibition at 1 µM (PLA2G7) | inhibition at 10 µM (PLA2G7) | IC50 (ABHD6) | IC50 (FAAH) | IC50 (MAGL) | SMILES |
| --- | --- | --- | --- | --- | --- | --- | --- | --- | --- | --- | --- |
| 25 to 75% | > 75% |  | 25 to 75% |  | < 25% | < 25% | > 75% |  |  |  | O=C(c1cnn(C(=O)N2CCN(Cc3ccncc3)CC2)c1)N1CCCC1 [Example 79, (4-(Pyridin-4-ylmethyl)piperazin-1-yl)(4-(pyrrolidine-1-carbonyl)-1H-pyrazol-1-yl)methanone] |
| 25 to 75% | > 75% |  | 25 to 75% |  | < 25% | < 25% | > 75% |  |  |  | O=C(c1cnn(C(=O)N2CCN(Cc3cccnc3)CC2)c1)N1CCCC1 [Example 80, (4-(Pyridin-3-ylmethyl)piperazin-1-yl)(4-(pyrrolidine-1-carbonyl)-1H-pyrazol-1-yl)methanone] |
| < 25% | > 75% |  | > 75% |  | < 25% | < 25% | > 75% |  |  |  | O=C(c1cnn(C(=O)N2CCN(Cc3ccccn3)CC2)c1)N1CCCC1 [Example 81, (4-(Pyridin-2-ylmethyl)piperazin-1-yl)(4-(pyrrolidine-1-carbonyl)-1H-pyrazol-1-yl)methanone] |
| < 25% | > 75% |  | 25 to 75% |  | < 25% | < 25% | > 75% |  |  |  | O=C(c1cnn(C(=O)N2CCN(Cc3ccncn3)CC2)c1)N1CCCC1 [Example 82, (4-(Pyrimidin-4-ylmethyl)piperazin-1-yl)(4-(pyrrolidine-1-carbonyl)-1H-pyrazol-1-yl)methanone] |
| < 25% | > 75% | < 25% | > 75% | < 25% | < 25% | < 25% | > 75% |  |  |  | O=C(c1cnn(C(=O)N2CCN(Cc3nccs3)CC2)c1)N1CCCC1 [Example 83, Pyrrolidin-1-yl(1-(4-(thiazol-2-ylmethyl)piperazine-1-carbonyl)-1H-pyrazol-4-yl)methanone] |
| < 25% | 25 to 75% | < 25% | < 25% | < 25% | < 25% | < 25% | > 75% |  |  |  | O=C(c1cnn(C(=O)N2CCN(Cc3cncnc3)CC2)c1)N1CCCC1 [Example 84, (4-(Pyrimidin-5-ylmethyl)piperazin-1-yl)(4-(pyrrolidine-1-carbonyl)-1H-pyrazol-1-yl)methanone] |
| > 75% | > 75% | > 75% | > 75% | > 75% | > 75% | < 25% | > 75% | 100 to 1000 nM | < 100 nM | 100 to 1000 nM | Cc1cc(-c2ccccc2)ccc1CN1CCN(C(=O)n2cc(C(=O)N3CCCC3)cn2)CC1 [Example 85, (4-((3-Methyl-[1,1′-biphenyl]-4-yl)methyl)piperazin-1-yl)(4-(pyrrolidine-1-carbonyl)-1H-pyrazol-1-yl)methanone] |
| 25 to 75% | > 75% | > 75% | > 75% | < 25% | > 75% | < 25% | > 75% |  |  |  | O=C(c1cnn(C(=O)N2CCN(Cc3ccc4c(c3)OCO4)CC2)c1)N1CCC1 [Example 86, Azetidin-1-yl(1-(4-(benzo[d][1,3]dioxol-5-ylmethyl)piperazine-1-carbonyl)-1H-pyrazol-4-yl)methanone] |
